Literature values, collected in patent publication US9541834B2, “Ionic thermal acid generators for low temperature applications” (Rohm and Haas Electronic Materials LLC, priority 2012, dated 2017).

Conditions: pKa of conjugate acid (BH)+ of the base of the TAG, aqueous solution, about room temperature
For “3-Fluoropyridinium perfluorobutanesulfonate [3-Fluoropyridinium PFBuS]”, the “pKa (base)” value is listed as 2.8. For N.O=S(=O)(O)C(F)(F)C(F)(F)C(F)(F)C(F)(F)F [Ammonium PFBuS, Ammonium perfluorobutanesulfonate], the “pKa (base)” value is given as 9.25. For “Pyridazinium perfluorobutanesulfonate [Pyridazinium PFBuS]”, the “pKa (base)” value is listed as 3.1.
